Molecular target: T1, Ca^2+-activated Cl^– channel (CaCC) (Homo sapiens, UniProt Q5XXA6)
T1 construct: endogenous in cells; host or cells: CFBE41o- cells stably expressing YFP (YFP-CFBE cells)
T1 sequence (Q5XXA6 1-986): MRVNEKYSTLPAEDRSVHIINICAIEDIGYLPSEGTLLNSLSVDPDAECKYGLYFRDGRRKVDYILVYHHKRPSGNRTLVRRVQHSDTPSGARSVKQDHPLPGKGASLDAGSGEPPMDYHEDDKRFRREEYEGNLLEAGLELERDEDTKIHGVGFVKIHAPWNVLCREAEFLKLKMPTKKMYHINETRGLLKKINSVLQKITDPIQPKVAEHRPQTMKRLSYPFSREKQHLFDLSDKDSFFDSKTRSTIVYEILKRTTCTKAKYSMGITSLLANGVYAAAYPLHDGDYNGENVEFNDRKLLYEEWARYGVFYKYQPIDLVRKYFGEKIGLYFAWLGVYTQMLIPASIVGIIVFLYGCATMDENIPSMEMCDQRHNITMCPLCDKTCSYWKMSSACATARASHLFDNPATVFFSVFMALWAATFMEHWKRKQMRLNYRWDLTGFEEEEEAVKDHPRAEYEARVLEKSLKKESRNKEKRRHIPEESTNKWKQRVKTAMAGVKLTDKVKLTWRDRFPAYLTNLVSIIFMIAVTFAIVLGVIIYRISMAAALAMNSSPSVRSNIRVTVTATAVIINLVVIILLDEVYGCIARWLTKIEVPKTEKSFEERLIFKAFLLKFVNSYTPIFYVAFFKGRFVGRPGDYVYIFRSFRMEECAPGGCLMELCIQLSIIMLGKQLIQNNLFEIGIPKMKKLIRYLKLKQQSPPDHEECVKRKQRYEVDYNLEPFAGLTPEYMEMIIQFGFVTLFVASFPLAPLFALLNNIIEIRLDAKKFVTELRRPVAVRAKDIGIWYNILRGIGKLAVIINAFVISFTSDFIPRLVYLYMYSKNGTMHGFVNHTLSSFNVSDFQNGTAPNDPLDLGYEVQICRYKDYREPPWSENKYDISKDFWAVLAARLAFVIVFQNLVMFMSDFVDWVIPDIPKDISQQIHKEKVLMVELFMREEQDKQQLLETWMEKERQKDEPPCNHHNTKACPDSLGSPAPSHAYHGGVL
Assay: CaCC-mediated anion transport in YFP-CFBE cells
Format: cell-based
Conditions: UTP 1 mM; CaCCinh-A01 10 μM
Method: (for chemical structure, see ESI Fig. S15 ^†).
the PBS bathing cells 10 minutes prior to PBS iodide addition, whereas UTP was added to cells with the PBS iodide solution. Fluorescence was measured for 14 seconds; 2 seconds before and 12 seconds after injection of 110 l PBS iodide solution (137 mM Cl- replaced by I-) into each well (to obtain a final concentration of I- of 100 mM).
We expressed cell fluorescence values (F) relative to the fluorescence value immediately before I- injection (F0), excluding the initial decrease, which likely represents the quenching of extracellular YFP released from cells and signal reduction accompanying the increase in solution volume bathing cells. To quantify anion transport by test anionophores, we determined the initial slope of the fluorescence decay following I - addition by fitting first order exponential functions to the last 12 seconds of each fluorescence recording. […]
fluorescence microscopy as described previously.10 In brief, YFP-FRT cells were washed 3x with PBS before transfer to a perfusion chamber mounted on the stage of a Leica DM IRB microscope. […] Any anionophore not incorporated into YFP-FRT cell membranes was removed from the chamber by perfusion with PBS when fluorescence measurements commenced. […]
Fluorescence quenching by the anionophore vehicle DMSO was subtracted from each test measurement. […]

With `O=c1ccn([C@@H]2O[C@H](COP(=O)(O)OP(=O)(O)OP(=O)(O)O)[C@@H](O)[C@H]2O)c(=O)[nH]1` [UTP] the “effect on CaCC activity” value was “activated little CaCC activity”.

Reference: paper PMC6984391, “Anion carriers as potential treatments for cystic fibrosis: transport in cystic fibrosis cells, and additivity to channel-targeting drugs” (Chemical Science, 2019)
